Read-outs that look alike come from different tables or passages of the source.
How the values were obtained:
LXR [1] = system: T1, LXR; experiment: Activity on LXR, assay not specified; details: confirmed by applicant
T1 construct: rows headed: activity on LXR; other: confirmed by applicant; LXRα (amino acids 1-447); NP005684; NP009052
Excerpt: The following compounds from this application, in particular, are further described in some publications, mainly from the same group of inventors/authors: SR9238 is described as a liver-selective LXR inverse agonist that suppresses hepatic steatosis upon parenteral administration (Griffett et al., ACS Chem. Biol. 2013; 8:559). […] This compound then has systemic exposure. In addition, it was described, that SR9238 suppresses fibrosis in a model of NASH again after parenteral administration (Griffett et al., Mol. Metab. 2015; 4:35). With a related SR9243 the effects on aerobic glycolysis (Warburg effect) and lipogenesis were described (Flaveny et al., Cancer Cell 2015; 28:42) and the NASH-supressing data obtained with SR9238 was confirmed by Huang et al. (BioMed Res. Int. 2018; 8071093) using SR9243.

LXR [2] = details: literature; cited from earlier work
[3] = Pharmacokinetics in mice after single oral dosing, blood and liver exposure by LC-MS; assay type: in vivo, mice (C57/bl6/J)
Summary of the method: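 Male C57BL/6J mice fasted ≥12 h, given a single oral dose of 20 mg/kg (n=3 per group). Sacrifice at 4, 12 or 24 h post-dose; liver and blood levels quantified by LC-MS.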

[4] = rat liver microsome; cited from earlier work
[5] = human liver microsome; cited from earlier work
[6] = target: T2, GST-LXRβ ligand-binding domain (Homo sapiens, UniProt P55055, INS174Q); experiment: TR-FRETβ activity assay (NCoA3 coactivator peptide recruitment); assay type: biochemical; details: 1 μM 24(S)-25-epoxycholesterol as prestimulating agonist; inverse agonist unless *
T2 construct: amino acids 156-461; NP009052; made in house; host or cells: E. coli
T2 sequence (P55055 with tags, fused parts or gaps INS174Q limits assumed): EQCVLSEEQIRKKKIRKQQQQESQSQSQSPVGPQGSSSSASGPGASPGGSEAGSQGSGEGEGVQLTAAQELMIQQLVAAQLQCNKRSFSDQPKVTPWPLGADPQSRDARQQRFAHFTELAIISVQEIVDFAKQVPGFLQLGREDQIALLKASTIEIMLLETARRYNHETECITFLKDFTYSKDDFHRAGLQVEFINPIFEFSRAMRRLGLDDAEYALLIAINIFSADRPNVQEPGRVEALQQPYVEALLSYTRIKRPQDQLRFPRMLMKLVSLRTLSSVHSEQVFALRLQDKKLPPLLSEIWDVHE
Summary of the method: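 E. coli-expressed GST-LXRβ LBD (aa 156-461, 76 nM) with biotinylated NCoA3 peptide (400 nM), anti-GST-Tb cryptate donor and streptavidin-XL665 acceptor in 240 mM KCl, BSA, 0.002% Triton X-100. Equilibrated 1 h at 4° C; TR-FRET read at 615/665 nm, triplicates.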

[7] = target: T3, LXRα ligand-binding domain (LBD) (Homo sapiens, UniProt Q13133); experiment: LXR Gal4 reporter transient transfection assay, mammalian two-hybrid, LBD-M2H Gal4α; assay type: cell-based; details: HEK293 cells; inverse agonist unless *
T3 construct: expressed in transfected cells; host or cells: HEK293
T3 sequence (Q13133 155-447): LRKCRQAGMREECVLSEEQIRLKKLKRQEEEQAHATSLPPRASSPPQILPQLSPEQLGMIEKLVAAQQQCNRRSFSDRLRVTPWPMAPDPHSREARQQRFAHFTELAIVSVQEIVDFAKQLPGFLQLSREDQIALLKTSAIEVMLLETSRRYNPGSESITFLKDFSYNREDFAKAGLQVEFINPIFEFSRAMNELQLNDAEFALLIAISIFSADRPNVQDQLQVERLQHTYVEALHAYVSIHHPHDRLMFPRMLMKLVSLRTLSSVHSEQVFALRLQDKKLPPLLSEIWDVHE
Experimental: (§1) The tested compounds were usually dissolved, tested and stored as 20 mM stock solutions in DMSO. Since sulfonyl acetic acid derivatives tend to decarboxylate under these conditions, these stock solutions were prepared, tested and stored as 20 mM DMSO stock solutions containing 100 mM trifluoroacetic acid (5 equivalents). Sulfonyl acetic acid derivatives are shelf stable as solid at rt for long time as reported by Griesbrecht et al. (Synlett 2010:374) or Faucher et al. (J. Med. Chem. 2004; 47:18).
(§2) LXR Gal4 Reporter Transient Transfection Assays
(§3) LXRα and LXRβ activity status was determined via detection of interaction with coactivator and corepressor proteins in mammalian two-hybrid experiments (M2H). For this, via transient transfection the full length (FL) proteins of LXRα (amino acids 1-447; NP005684; SEQ ID NO:1) or LXRβ-(amino acids 1-461; NP009052; SEQ ID NO:2) or the ligand-binding domains (LBD) of LXRα (amino acids 155-447 SEQ ID NO:3) or LXR (amino acids 156-461; SEQ ID NO:4) were expressed from pCMV-AD (Stratagene) as fusions to the transcriptional activation domain of NFkB. As cofactors, domains of either the steroid receptor coactivator 1 (SRC1; amino acids 552-887; SEQ ID NO:5) or of the corepressor NCoR (amino acids 1906-2312; NP006302; SEQ ID NO:6) were expressed as fusions to the DNA binding domain of the yeast transcription factor GAL4 (from pCMV-BD; Stratagene). Interaction was monitored via activation of a coexpressed Firefly Luciferase Reporter gene under control of a promoter containing repetitive GAL4 response elements (vector pFRLuc; Stratagene). Transfection efficiency was controlled via cotransfection of constitutively active pRL-CMV Renilla reniformis luciferase reporter (Promega). HEK293 cells were grown in minimum essential medium (MEM) with 2 mM L-glutamine and Earle's balanced salt solution supplemented with 8.3% fetal bovine serum, 0.1 mM non-essential amino acids, 1 mM sodium pyruvate, at 37° C. in 5% CO2. 3.5×10^4 cells/well were plated in 96-well cell culture plates in growth medium supplemented with 8.3% fetal bovine serum for 16-20 h to—90% confluency. For transfection, medium was taken off and LXR and cofactor expressing plasmids as well as the reporter plasmids are added in 30 μL OPTIMEM/well including polyethylene-imine (PEI) as vehicle. Typical amounts of plasmids transfected/well: pCMV-AD-LXR (5 ng), pCMV-BD-cofactor (5 ng), pFR-Luc (100 ng), pRL-CMV (0.5 ng). Compound stocks were prepared in DMSO, prediluted in MEM to a total volume of 120 μL, and added 4 h after addition of the transfection mixture (final vehicle concentration not exceeding 0.2%). Cells were incubated for additional 16 h, lysed for 10 min in 1×Passive Lysis Buffer (Promega) and Firefly and Renilla luciferase activities were measured sequentially in the same cell extract using buffers containing D-luciferine and coelenterazine, respectively. Measurements of luminescence were done in a BMG-luminometer.

[8] = target: T4, LXRβ ligand-binding domain (LBD) (Homo sapiens, UniProt P55055, INS174Q); experiment: LXR Gal4 reporter transient transfection assay, mammalian two-hybrid, LBD-M2H Gal4β; assay type: cell-based; details: HEK293 cells; inverse agonist unless *
T4 construct: or LXR (amino acids 156-461); expressed in transfected cells; host or cells: HEK293
T4 sequence (P55055 with tags, fused parts or gaps INS174Q limits assumed): T2 sequence (P55055 with tags, fused parts or gaps INS174Q limits assumed)
Experimental: as §1, §2, §3

[9] = Chemical stability of stock solutions and solids; assay type: physicochemical; details: sodium salt
Experimental: To a solution of compound 7/9 (150 mg, 0.24 mmol) in MeOH (10 mL) and water (10 mL) was added NaOH ([…], 0.48 mmol) at rt. The mixture was stirred at rt overnight and concentrated. The residue was washed with H2O to give compound 14 as a white solid.
as §1

[10] = single oral dose 20 mg/kg, time point 4 h, below LLOQ
[11] = single oral dose 20 mg/kg, time point 4 h
[12] = single oral dose 20 mg/kg, time point 12 h

Which “activity on LXR” value (LXR [1]) does the source give for Cc1cc(C)c(S(=O)(=O)N(Cc2ccc(-c3cccc(S(C)(=O)=O)c3)cc2)Cc2ccc(C(=O)O)o2)c(C)c1 [SR10389] here?
The value was “inactive on LXR”.

And the LXR activity (LXR [2])?
Its LXR activity is “LXR inactive”.

For Cc1cc(C)c(S(=O)(=O)N(Cc2ccc(-c3cccc(S(C)(=O)=O)c3)cc2)Cc2ccc(C(F)(F)F)o2)c(C)c1 [GSK2033, reference compound], which oral bioavailability ([3]; single dose oral administration, 20 mg/kg) is on record?
Its oral bioavailability is “not orally bioavailable and hepatoselective”.

What about the blood/plasma exposure [3, 10] of the same molecule?
The blood/plasma exposure was “(14.4 ng/mL)”.

And the liver exposure [3, 10]?
The liver exposure was “(9.6 ng/mL)”.

And the “clearance ClInt” value [4]?
The value was greater than 1.0 mL/min/mg prot.

And the “clearance ClInt” value [5]?
The value was greater than 1.0 mL/min/mg prot.

With COc1cc(-c2ccc(CO)c(C(C)(C)C(=O)[O-])c2)ccc1CN(Cc1ccc(C(F)(F)F)o1)Cc1c(C)ccc2ccccc12.[Na+] [Example 14] as the molecule, how does the EC50 [6] read?
Its EC50 is 1 to 10 µM.

And the EC50 [7]?
Its EC50 is 1 to 10 µM.

And the EC50 [8]?
The EC50 was less than 0.1 µM.

And the stability upon standing [9]?
The stability upon standing was “tends to cyclisize back to lacton 7/9 upon standing”.

Which EC50 [6] does the source give for Cc1cc(C)c(CN(Cc2ccc(-c3cccc(S(=O)(=O)CC(=O)O)c3)cc2)Cc2ccc(C(F)(F)F)o2)c(C)c1 [Example 1, 2-((4′-((((5-(Trifluoromethyl)furan-2-yl)methyl)(2,4,6-trimethylbenzyl)amino)methyl)-1,1′-biphenyl-3-yl)sulfonyl)acetic acid] here?
Its EC50 is 1 to 10 µM.

And the EC50 [7]?
Its EC50 is 1 to 10 µM.

And the EC50 [8]?
Its EC50 is 0.1 to 1 µM.

And the Kp at 4 h ([3]; male, C57/bl6/J, mouse, liver/blood, single oral dose 20 mg/kg, time point 4 h, read-out: liver/blood ratio)?
The Kp at 4 h was 51.

And the Kp at 12 h ([3]; male, C57/bl6/J, mouse, liver/blood, single oral dose 20 mg/kg, time point 12 h, read-out: liver/blood ratio)?
The Kp at 12 h was 54.

And the blood/plasma exposure [3, 11]?
The blood/plasma exposure was 0.83 µM.

What about the liver exposure [3, 11] of the same molecule?
Its liver exposure is 42 µM.

And the blood/plasma exposure [3, 12]?
The blood/plasma exposure was 0.06 µM.

What about the liver exposure [3, 12] of the same molecule?
The liver exposure was 3.2 µM.

— patent publication US20200131144A1, “AMINE OR (THIO)AMIDE CONTAINING LXR MODULATORS” (Phenex-FXR GmbH, priority 2017, published 2020)
